“Also recorded” adds a separate entry of the source. Where a name gives a salt, the structure may show the parent alone. Read-outs that look alike come from different tables or passages of the source.

Assay [1] relates to RIPK1 Ser166 phosphorylation. Description: Western blot of RIPK1 Ser166 phosphorylation in I2.1 cells. The format is cell-based, human. Particulars: for phosphorylation of RIPK1 Ser166 after TNF: prior treatment with 10 μM compound. The protocol:
All compound treatments were performed with a preprepared 1000× stock of the desired concentration in DMSO and added directly to the relevant plate, with a final concentration of 0.1% DMSO on the cells. TNF (final concentration 575 pM) was added to induce necroptosis, the cells incubated for 4 h and harvested.
(§1) Cells were transferred to a microcentrifuge tube and centrifuged at 200g for 5 min, and media were removed. Cells were washed with PBS and lysed with 100 μL of lysis buffer (radioimmunoprecipitation assay lysis buffer, Sigma-Aldrich, R0278) supplemented with 1× phosphatase inhibitor cocktail 2 (Sigma, P5726) and 1× complete EDTA-free protease inhibitor cocktail (Sigma, […])) on ice for 30 min. The lysate was collected by centrifugation at 17,000g, 4 °C for 5 min, and the lysate was transferred to a new microcentrifuge tube. Protein concentration was determined using the DC Protein Assay (Bio-Rad) in a 96-well plate as per the manufacturer’s instructions and subsequently adjusted to 1 mg mL^–1 using lysis buffer. Samples were prepared by adding 4 μL of 4× loading buffer (Biorad, 161-0747) containing β-mercaptoethanol to 12 μL of protein sample and boiling at 95 °C for 10 min. 14 μL of each sample was loaded onto a 4–15% Mini-PROTEAN TGX precast gel (Biorad, 456-1086) and run in 1× running buffer (0.25 M Tris, 0.2 M glycine, 0.1% (w/v) SDS) for 1.15 h at 130 V. Either 2 μL of precision plus protein all blue prestained protein standards (Bio-Rad, 1610373) or precision plus protein dual color standards (Bio-Rad, 1610374) was used in at least one well.
Proteins were transferred onto a nitrocellulose membrane (GE Healthcare) using the Trans-Blot Turbo Transfer System (Biorad, 1704150) at 2.5 A and 25 V for 7 min. The membrane was stained with Ponceau S to confirm protein transfer prior to blocking with 5% (w/v) nonfat dried skimmed milk in TBS-T (1× Tris-buffered saline, 0.1% (v/v) Tween-20) at rt for 1 h. Staining with the desired primary antibody in 5% (w/v) nonfat dried skimmed milk in TBS-T was performed overnight at 4 °C. The blot was washed with TBS-T at rt (3 × 5 min) and stained with secondary antibody in 5% (w/v) nonfat dried skimmed milk in TBS-T for 1 h at rt. The blot was washed with TBS-T at rt (3 × 5 min), visualized with Immobilon Crescendo Western HRP substrate, and imaged using ImageQuant LAS-4000 Imaging System (Fujifilm), and the contrast normalized in Fiji.

The target in the next assay is T1, RIPK1 (Homo sapiens, UniProt Q13546).
T1 construct: Following incubation of I2.1 cells with the probe, irradiation to induce photocrosslinking; endogenous in cells; host or cells: I2.1 FADD-deficient Jurkat T cells (ATCC, CRL-2572)
T1 sequence (Q13546 1-671): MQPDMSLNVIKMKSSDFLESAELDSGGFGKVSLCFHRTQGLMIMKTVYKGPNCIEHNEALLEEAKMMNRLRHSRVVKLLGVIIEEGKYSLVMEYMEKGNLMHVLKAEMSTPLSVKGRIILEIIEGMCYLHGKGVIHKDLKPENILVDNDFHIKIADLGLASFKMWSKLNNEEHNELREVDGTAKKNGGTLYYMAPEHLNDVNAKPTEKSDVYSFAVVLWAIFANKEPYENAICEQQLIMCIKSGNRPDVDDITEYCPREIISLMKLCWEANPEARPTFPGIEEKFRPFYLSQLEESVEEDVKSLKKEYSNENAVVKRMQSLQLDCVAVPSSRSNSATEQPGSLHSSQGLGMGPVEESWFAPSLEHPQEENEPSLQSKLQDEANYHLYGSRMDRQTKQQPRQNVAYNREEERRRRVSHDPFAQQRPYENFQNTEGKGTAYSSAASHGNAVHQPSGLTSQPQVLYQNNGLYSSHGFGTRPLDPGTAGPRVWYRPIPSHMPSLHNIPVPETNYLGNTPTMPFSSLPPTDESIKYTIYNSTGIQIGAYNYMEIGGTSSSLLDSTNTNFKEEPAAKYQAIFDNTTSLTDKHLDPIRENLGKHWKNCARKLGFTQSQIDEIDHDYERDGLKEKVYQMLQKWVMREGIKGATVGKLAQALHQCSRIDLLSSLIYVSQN
Nature of the assay: Streptavidin mass shift assay (photoaffinity labeling, target engagement) in I2.1 cells. The format is cell-based. The conditions noted are these: particularly after 5 min of UV irradiation.

In assay [2] the test system is I2.1 FADD–/– human Jurkat cells. Nature of the assay: IncuCyte necroptosis assay in I2.1 cells. Particulars: for EC50: read-out: EC50 (95% CI), necroptosis inhibition; for EC50 values of well-characterized necroptosis inhibitors (assay validation), in words: Figure S1e.
Protocol: A cell-based assay was established to monitor necroptosis in I2.1 cells using the IncuCyte S3 live cell microscopy platform (Figure S1a). Necroptosis was induced by treatment with TNF, and Sytox Green was used to monitor membrane permeabilization over time as an indicator of progressive necroptotic cell death (Figure S1b–d), allowing determination of the EC50 of candidate necroptosis inhibitors.
I2.1 cells were seeded in a sterile 96-well plate (Greiner) at 20,000 cells per well and incubated at 37 °C overnight. The cells were treated with a final concentration of 600 pM TNF, 1 μM Sytox Green, and compounds in a dose-dependent manner. Wells containing TNF and Sytox Green served as positive control. Wells containing DMSO and Sytox Green served as a negative control. The plate was placed into an IncuCyte S3 Live Cell Analysis System (Sartorius) and readings for phase and green fluorescence were taken every hour for 24 h, with 4 images per well. The images were analyzed with IncuCyte 2021C software and the Green Integrated Intensity Per Image/Phase Area Per Image (GCU × μm^2/image/μm^2/image or GP) was exported. The background at t = 0 h was subtracted, and the linear slope (t = 3–7 h) was calculated by plotting GP against time. The percent inhibition of necroptosis was determined by normalizing to the positive and negative controls and graphing against the [compound]. EC50 values were determined using Prism 10 for each replicate, which were then used to calculate the geometric mean EC50 and associated 95% CIs.
I2.1 cells in a 96-well plate were treated with TNF to induce necroptosis, a dilution series of the candidate necroptosis inhibitor and Sytox Green to monitor cell death. Plates were placed in the IncuCyte® and imaged every hour for 24 h. Cell death was measured over time and used to determine the proportion of necroptotic cells compared to those without necroptosis induction or not treated with an inhibitor. The linear portion of the graph was used to determine an initial rate for calculation of the EC50. TNF with Sytox Green and Sytox Green alone were used as positive and negative controls, respectively. […] EC50 values are expressed as the geometric mean with a 95% confidence interval (CI) of at least three biological replicates.
The target in a further assay is Aurora kinase B (Homo sapiens, UniProt Q96GD4). Nature of the assay: Kinase panel screen (SelectScreen, Z-lyte). The conditions noted are these: single concentration of 1 µM, % inhibition, Figure S2c. The format is biochemical. As to the method: (a) Western blot analysis of RIPK1, RIPK3 and MLKL phosphorylation in HT-29 cells with treatment of necroptosis inhibitors and the 7PQ series. Results are representative of two experiments. […] Results are representative of two experiments. (c) Kinase activity panel screen. Compounds were screened at a single concentration of 1 µM at Thermofisher.
Sequence of Aurora kinase B (Q96GD4 whole entry): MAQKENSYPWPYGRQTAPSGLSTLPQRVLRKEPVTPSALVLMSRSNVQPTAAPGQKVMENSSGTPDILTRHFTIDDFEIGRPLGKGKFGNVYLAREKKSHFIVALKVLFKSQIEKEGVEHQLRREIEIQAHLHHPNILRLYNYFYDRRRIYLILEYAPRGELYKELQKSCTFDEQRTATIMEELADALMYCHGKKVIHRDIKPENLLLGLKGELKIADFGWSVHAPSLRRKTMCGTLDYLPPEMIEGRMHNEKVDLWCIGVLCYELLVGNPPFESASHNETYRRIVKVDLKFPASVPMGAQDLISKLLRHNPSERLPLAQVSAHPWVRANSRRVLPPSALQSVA
The kinase data was provided by Thermofisher SelectScreen Biochemical Kinase Profiling service using the Z-lyte technology. Each compound was profiled at […] against a representative panel of 25 kinases.

Another assay deals with C57BL/6J mice. Nature of the assay: TNF-induced SIRS murine model. The conditions noted are these: 5 mg/kg i.v. 15 min before TNF 0.5 mg/kg i.v.
Another assay relates to HT-29 cells. Description: IncuCyte necroptosis assay in HT-29 cells. The format is cell-based, human. Particulars: TNF, birinapant and Z-VAD-FMK induced; Figure S1f. The text has this:
Wells containing TSZ served as a positive control.

Assay [3] relates to RIPK1, RIPK3 and MLKL phosphorylation. Description: Western blot of RIPK1, RIPK3 and MLKL phosphorylation in HT-29 cells. The format is cell-based, human. Particulars: TNF, birinapant and Z-VAD-FMK. As to the method:
All compound treatments were performed with a preprepared 1000× stock of the desired concentration and added directly to the relevant plate with a final concentration of 0.1% DMSO on the cells. A combination of TNF (final concentration of 1.2 nM), Birinapant (final concentration 100 nM), and Z-VAD-FMK (final concentration 20 μM) was added to induce necroptosis, the cells incubated for 7 h, and harvested.
as §1, with “14 μL of each sample was loaded onto a 4–15% Mini-PROTEAN TGX precast gel (Biorad, 456-1086) and run in 1× running buffer (0.25 M Tris, 0.2 M glycine, 0.1% (w/v) SDS) for 1.15 h at 130 V. Either 2 μL of precision plus protein all blue prestained protein standards (Bio-Rad, 1610373) or precision plus protein dual color standards (Bio-Rad, 1610374) was used in at least one well.” left out
In general terms: Immunoblotting shows a protein as a band on a membrane.

Setting [4] is: TNF-induced necroptosis, I2.1 cells, Sytox Green, geometric mean with 95% CI, at least three biological replicates.

Protocol for C57BL/6J mice: Male C57BL/6J mice of 18–25 g were used at the age of 6–8 weeks. Three animals were included in each experimental group. All animal experiments were carried out with the permission of the local animal ethical committee in accordance with the EU Directive (2010/63/EU), Portuguese laws (DL113/2013, 2880/2015, 260/2016), and all relevant legislations. Animals received humane care in a temperature-controlled environment with a 12 h light–dark cycle and ad libitum access to pelleted chow and water, complying with the Institute’s guidelines, and as outlined in the “Guide for the Care and Use of Laboratory Animals” prepared by the National Academy of Sciences and published by the National Institutes of Health (NIH publication 86-23 revised 1985). […] TNF was diluted in sterile PBS. […] All injections were administered intravenously (i.v.).

One may read the EC50 as the concentration that produces a half-maximal response. `C#CCN(CCC1(C)N=N1)S(=O)(=O)c1ccc(-c2ccc3cccnc3c2)cc1` [7PQYnD, N-(2-(3-Methyl-3H-diazirin-3-yl)ethyl)-N-(prop-2-yn-1-yl)-4-(quinolin-7-yl)benzenesulfonamide]: the “phosphorylation of RIPK1 Ser166 after TNF” value (“phosphorylation … after TNF” below) in assay [1] was “blocked”. For the same compound, at RIPK1, the “engagement of RIPK1 by the probe (streptavidin-shifted band)” value is given as “Dose-dependent engagement of RIPK1”. Besides, the EC50 in assay [2] (Homo sapiens, Jurkat) came to 8900 nM. The “fold less potent than the parent compounds AZ’902 and AZ’320 (necroptosis inhibition)” value in assay [2] (I2.1 cells) was 2–5 fold. In the case of `CS(=O)(=O)CC1CN(S(=O)(=O)c2ccc(-c3ccc4cccnc4c3)cc2)C1` [AZ’320, 7-(4-((3-((Methylsulfonyl)methyl)azetidin-1-yl)sulfonyl)phenyl)quinoline], in assay [1], the “dose dependence of the effect on phosphorylation of RIPK1 Ser166” value was “dose dependent”. Besides, the “off-target activity in a panel of 25 kinases” value at Aurora kinase B is “off–target activity observed primarily against Aurora kinase B”. Also, the “effects on temperature and body weight after TNF” value with C57BL/6J mice was “rescuing effects on temperature and body weight”. For the same compound, the “protection from TNF-induced mortality (survival)” value in the assay with C57BL/6J mice (3 mice per group) is “completely reverted the toxic effects induced by TNF; also recorded: preventing mortality”. Also, the EC50 in assay [2] (Homo sapiens, Jurkat) worked out at 4900 nM. `CC(=O)N1CC[C@H](CN(C)S(=O)(=O)c2ccc(-c3ccc4cccnc4c3)cc2)C1` [AZ’902, (S)-N-((1-Acetylpyrrolidin-3-yl)methyl)-N-methyl-4-(quinolin-7-yl)benzenesulfonamide]: in the assay on HT-29 cells, the “necroptosis inhibition activity in HT-29 cells” value is recorded as “confirmed”. Besides, in assay [1], the “dose dependence of the effect on phosphorylation of RIPK1 Ser166” value is listed as “dose dependent” and the “phosphorylation … after TNF” value is reported as “blocked”. Besides, the “off-target activity in a panel of 25 kinases” value at Aurora kinase B was “off–target activity observed primarily against Aurora kinase B”. In addition, the EC50 in assay [2] (Homo sapiens, Jurkat) came to 1600 nM. In the case of `CC(C)S(=O)(=O)c1ccc2nccc(Nc3ccc4scnc4c3)c2c1` [GSK’872, reference compound], the “phosphorylation … after TNF” value in assay [1] is given as “no inhibition”. In assay [3], the “phosphorylation of necrosome components (RIPK1, RIPK3, MLKL)” value is “inhibited phosphorylation of RIPK3 and MLKL but not RIPK1”. In addition, the “EC50 values of well-characterized necroptosis inhibitors (assay validation), in words” value in assay [2] (I2.1 cells) was “consistent with those previously reported”. Regarding `COc1nccnc1NS(=O)(=O)c1ccc(NC(=O)/C=C/c2ccc([N+](=O)[O-])s2)cc1` [NSA, Necrosulfonamide, reference compound], in assay [3], the “phosphorylation of necrosome components (RIPK1, RIPK3, MLKL)” value is recorded as “retained phosphorylation of all components of the necrosome”. Besides, the “EC50 values of well-characterized necroptosis inhibitors (assay validation), in words” value in assay [2] (I2.1 cells) was “consistent with those previously reported”. Take `CN1C(=O)NC(Cc2c[nH]c3c(Cl)cccc23)C1=O` (centres unmarked) [Nec-1s, reference compound]: the “EC50 values of well-characterized necroptosis inhibitors (assay validation), in words” value in assay [2] (I2.1 cells) is “consistent with those previously reported”. As to `CC(=O)N1CC[C@@H](CN(C)S(=O)(=O)c2ccc(-c3ccc4cccnc4c3)cc2)C1` [compound 1, (R)-N-((1-Acetylpyrrolidin-3-yl)methyl)-N-methyl-4-(quinolin-7-yl)benzenesulfonamide], in assay [2] (Homo sapiens, Jurkat), the EC50 amounted to 1000 nM. `CN(C[C@H]1CCNC1)S(=O)(=O)c1ccc(-c2ccc3cccnc3c2)cc1` [compound 2, (S)-N-Methyl-N-(pyrrolidin-3-ylmethyl)-4-(quinolin-7-yl)benzenesulfonamide·HCl]: in assay [2] (Homo sapiens, Jurkat), the EC50 came out at 1700 nM. In the case of `CC(C)(C)OC(=O)N1CC[C@H](CNC(=O)c2ccc(-c3ccc4cccnc4c3)cc2)C1` [compound 4, tert-Butyl (R)-3-((4-(Quinolin-7-yl)benzamido)methyl)pyrrolidine-1-carboxylate], the EC50 in assay [2] (Homo sapiens, Jurkat) was determined as 3000 nM.

In the case of `CC(C)(C)OC(=O)N1CC[C@@H](NC(=O)c2ccc(-c3ccc4cccnc4c3)cc2)C1` [compound 5, tert-Butyl (R)-3-(4-(Quinolin-7-yl)benzamido)pyrrolidine-1-carboxylate], the EC50 in assay [2] (Homo sapiens, Jurkat) was found to be 6700 nM. The same measure, in the same setting: the same measure for `O=C(c1ccc(-c2ccc3cccnc3c2)cc1)N1CCOCC1` [compound 6, Morpholino(4-(quinolin-7-yl)phenyl)methanone]: 23000 nM. For `O=C(c1ccc(-c2ccc3ccncc3c2)cc1)N1CCOCC1` [compound 7, (4-(Isoquinolin-7-yl)phenyl)(morpholino)methanone], the “EC50 (95% CI), necroptosis inhibition” value in assay [2] (setting [4]) is on record as “Inactive”.

Turning to `O=C(c1ccc(-c2ccc3cnccc3c2)cc1)N1CCOCC1` [compound 8, (4-(Isoquinolin-6-yl)phenyl)(morpholino)methanone], the “EC50 (95% CI), necroptosis inhibition” value in assay [2] (setting [4]) is on record as “Inactive”. Regarding `O=C(c1ccc(-c2ccc3ncccc3c2)cc1)N1CCOCC1` [compound 9, Morpholino(4-(quinolin-6-yl)phenyl)methanone], the “EC50 (95% CI), necroptosis inhibition” value in assay [2] (setting [4]) is recorded as “Inactive”. Take `O=C(c1ccc(-c2cnc3ccccc3c2)cc1)N1CCOCC1` [compound 10, Morpholino(4-(quinolin-3-yl)phenyl)methanone]: in assay [2] (setting [4]), the “EC50 (95% CI), necroptosis inhibition” value is “Inactive”. `O=C(c1ccc(-c2ccc3ccccc3n2)cc1)N1CCOCC1` [compound 11, Morpholino(4-(quinolin-2-yl)phenyl)methanone]: in assay [2] (setting [4]), the “EC50 (95% CI), necroptosis inhibition” value is “Inactive”. For the compound `O=C(c1ccc(-c2ccc3nccnc3c2)cc1)N1CCOCC1` [compound 12, Morpholino(4-(quinoxalin-6-yl)phenyl)methanone], the “EC50 (95% CI), necroptosis inhibition” value in assay [2] (setting [4]) was “Inactive; also recorded: loss of activity”. With “tert-Butyl(S)-3-(((N-methyl-4-(quinolin-7-yl)phenyl)sulfonamido)methyl)pyrrolidine-1-carboxylate [compound 3]”, the EC50 in assay [2] (setting [4]) is 2500 nM.

For the origin of these results see publication PMC12281487, “Discovery and Validation of a Novel Class of Necroptosis Inhibitors Targeting RIPK1” (ACS Chemical Biology, 2025).
